{"source": "patent US11464788B2", "about": "“Oligomer-corticosteroid conjugates” (Nektar Therapeutics, priority 2007, dated 2022)", "key": {"[1]": {"biological_target": "T1, glucocorticoid receptors (Rattus norvegicus, UniProt P06536)", "T1 sequence (P06536 1-795)": "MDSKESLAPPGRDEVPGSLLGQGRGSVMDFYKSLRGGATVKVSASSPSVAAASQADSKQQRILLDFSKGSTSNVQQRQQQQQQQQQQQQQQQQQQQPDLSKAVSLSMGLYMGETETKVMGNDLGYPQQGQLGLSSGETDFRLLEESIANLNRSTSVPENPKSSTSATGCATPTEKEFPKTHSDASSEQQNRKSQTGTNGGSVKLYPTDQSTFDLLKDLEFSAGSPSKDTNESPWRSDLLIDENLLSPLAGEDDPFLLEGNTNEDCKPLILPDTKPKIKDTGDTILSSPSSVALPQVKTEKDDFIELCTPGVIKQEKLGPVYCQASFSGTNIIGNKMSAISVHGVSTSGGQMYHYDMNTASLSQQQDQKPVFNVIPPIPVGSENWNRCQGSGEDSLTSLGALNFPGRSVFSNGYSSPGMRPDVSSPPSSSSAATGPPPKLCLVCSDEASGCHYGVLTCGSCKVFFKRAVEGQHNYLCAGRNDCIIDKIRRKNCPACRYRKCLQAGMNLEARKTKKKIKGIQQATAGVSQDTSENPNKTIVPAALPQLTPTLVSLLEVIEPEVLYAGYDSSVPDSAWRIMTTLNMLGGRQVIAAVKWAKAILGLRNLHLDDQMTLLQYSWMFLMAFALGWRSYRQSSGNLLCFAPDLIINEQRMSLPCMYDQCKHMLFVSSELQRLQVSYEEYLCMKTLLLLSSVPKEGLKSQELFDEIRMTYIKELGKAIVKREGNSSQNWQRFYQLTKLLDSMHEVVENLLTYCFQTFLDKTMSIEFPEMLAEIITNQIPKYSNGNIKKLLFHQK", "test": "Glucocorticoid binding assay (competitive binding with [6,7-3H]triamcinolone acetonide)", "details": "displacement of [6,7-3H]triamcinolone acetonide; glucocorticoid receptors from rat brains; 50 mM KH2PO4 pH 7.4, 0° C., 16 hours", "experimental": "The assay was used to determine whether the tested compounds bound to the glucocorticoid binding site and is based on procedures set forth in the literature. […] Int. […] Briefly, using competitive binding of with the radioligand “[6,7-^3H]triamcinolone acetonide” (30-50 Cl/mmol), reactions were carried out in 50 mM KH2PO4 (pH 7.4) containing 10 mM sodium molybdate and 10 mM α-monothioglycerol at 0° C. for 16 hours. The glucocorticoid receptors were obtained from rat brains. The reactions were terminated by rapid vacuum filtration onto glass fiber filters. Radioactively trapped onto the filters is determined and compared to control values. […] A higher IC50 value reflects a weaker binding affinity."}}, "note": "Read-outs that look alike come from different tables or passages of the source."}
{"smiles": "CC1(C)O[C@@H]2C[C@H]3[C@@H]4CCC5=CC(=O)C=C[C@]5(C)[C@@]4(F)[C@@H](O)C[C@]3(C)[C@]2(C(=O)CO)O1", "note": "[Triamcinolone Acetonide]", "values": [{"measurement": "IC50", "setting": "[1]", "value": 1.21, "unit": "nM"}]}
{"smiles": "COCCOCCOCCOCCOCCOCCOCCOC(=O)NN=C1C=C2CCC3C(C(O)CC4(C)C3CCC4(O)C(=O)CO)C2(C)CC1", "note": "(centres unmarked) [mPEG7-Hydrocortisone]", "values": [{"measurement": "IC50", "setting": "[1]", "value": 3.93, "unit": "nM"}]}
{"smiles": "C[C@]12CCC(=O)C=C1CC[C@@H]1[C@@H]2C(=O)C[C@@]2(C)[C@H]1CC[C@]2(O)C(=O)CO", "note": "[Cortisone]", "values": [{"measurement": "stability of the drug", "setting": "pH 5.5", "value": "stable"}, {"measurement": "stability of the drug", "setting": "pH 7.4", "value": "many decomposed impurities"}]}
{"smiles": "C[C@]12CCC(=O)C=C1CC[C@@H]1[C@@H]2[C@@H](O)C[C@@]2(C)[C@H]1CC[C@]2(O)C(=O)CO", "note": "[Hydrocortisone]", "values": [{"measurement": "stability of the drug", "setting": "pH 7.4", "value": "much more stable than cortisone"}]}
{"smiles": "COCCOCCOCCOCCOCCOCCOCCOC(=O)NN=C1C=C2CCC3C(C(=O)CC4(C)C3CCC4(O)C(=O)CO)C2(C)CC1", "note": "(centres unmarked) [mPEG7-Cortisone]", "values": [{"measurement": "IC50", "setting": "[1]", "value": 3440, "unit": "nM"}, {"measurement": "cortisone release from the conjugate (hydrolysis)", "setting": "pH 5.5", "value": "able to release cortisone clearly"}, {"measurement": "cortisone release from the conjugate (hydrolysis)", "setting": "pH 7.4", "value": "much slower than that at pH 5.5"}]}
